Results: US20170260134A1, “Ceramide Analogs” (Augusta University Research Institute, Inc., priority 2016, published 2017)
Entries after “also recorded” stand apart in the source; their conditions may differ.

What was measured:
[1] = system: SW480, RKO and HCT116 cells; assay: Tumor cell apoptosis assay: ceramide analog at sublethal dose plus FasL (Annexin V/PI); type: cell-based, human; conditions: for activity in human colon carcinoma: summary statement; for increase of cell sensitivity to FasL-induced apoptosis: sublethal dose of analog (10 μM) plus FasL (10 ng/ml SW480, HCT; 100 ng/ml RKO)
Protocol: FIG. 5A is a bar graph of Percent Apoptotic cell death of SW480 cells treated with the indicated ceramide analogs (10 μM), with (10 ng/ml) or without FasL and treated with FasL alone. FIG. 5B is a bar graph of Percent Apoptotic cell death of RKO cells treated with the indicated ceramide analogs (10 μM), with (100 ng/ml) or without FasL and treated with FasL alone. FIG. 5C is a bar graph of Percent Apoptotic cell death of HCT cells treated with the indicated ceramide analogs (10 μM), with (10 ng/ml) or without FasL and treated with FasL alone. % apoptotic cell death was calculated as % Annexin V^+PI^+ cells in the presence of ceramide analogs plus MegaFasL−% Annexin V^+PI^+ cells in the control group. Column: mean; Bar: SD.
Tumor cells were cultured in the presence of MegaFasL at the indicated concentrations as previously described Hu, X. et al. Deregulation of apoptotic factors Bcl-xL and Bax confers apoptotic resistance to myeloid-derived suppressor cells and contributes to their persistence in cancer. J Biol Chem 288, 19103-19115, doi:10.1074/jbc.M112.434530M112.434530 [pii] (2013). FasL (Mega-Fas Ligand®, kindly provided by Drs. Steven Butcher and Lars Damstrup at Topotarget A/S, Denmark) is a recombinant fusion protein that consists of three human FasL extracellular domains linked to a protein backbone comprising the dimmer-forming collagen domain of human adiponectin. The Mega-Fas Ligand was produced as a glycoprotein in mammalian cells using Good Manufacturing Practice compliant process in Topotarget A/S (Copenhagen, Denmark). For tumor cell apoptosis analysis, cells were stained with Alexa Fluor 647 Annexin V (Biolegend) in Annjixin V-binding buffer (10 mM Hepes, pH 7.4, 140 mM NaCl, 2.5 mM CaCl2) for 30 min at 4° C. Propidium Iodide was then added to the cell suspension, and cells were analyzed by flow cytometry as previously described Bardhan, K. et al. IFNgamma induces DNA methylation-silenced GPR109A expression via pSTAT1/p300 and H3K18 acetylation in colon cancer. Cancer Immunol Res, doi:canimm.0164.2014 [pii]2326-6066.CIR-14-0164 [pii] 10.1158/2326-6066.CIR-14-0164 (2015).
Next, the efficacy of the ceramide analogs was tested at their sublethal doses in enhancement of FasL-induced apoptosis using SW480, RKO and HCT116 cells. Tumor cells were treated with a sublethal dose of each of these 20 ceramide analogs along or ceramide analog plus FasL, and analyzed for apoptosis. […] Therefore, six novel ceramide analogs were identified that can effectively enhance the efficacy of FasL-induced apoptosis in human colon carcinoma cells.

CT26 cells = assay: CT26 colon carcinoma lung metastasis in BALB/c mice; type: in vivo; conditions: 25 and 50 kg body weight, intraperitoneal, days 8, 10 and 12 after tumor injection
Protocol: FIG. 8 is a bar graph of number of tumor nodules/lung in lungs taken from BALB/c mice injected with CT26 cells (2.5×10^5 cell per mouse). Tumor-bearing mice were treated with the indicated 5 ceramide analogs (25 and 50 […]) by intraperitoneal injection at days 8, 10 and 12 after tumor injection. CT26 cells (2.5×10^5 cell per mouse) were injected to BALB/c mice on […]. Tumor-bearing mice were treated with the 5 ceramide analogs (25 and 50 […]) by intraperitoneal injection at days 8, 10 and 12 after tumor injection. […]. Mouse lungs were inflated with ink and fixed. […] White dots are tumor nodules. Bottom panel: quantification of tumor nodule number in the lungs.

SW480 cells = assay: Cell viability (MTT) assay, cytotoxicity of ceramide analogs; type: cell-based, human; conditions: three days, at the doses tested
Protocol: FIG. 4 is a bar graph of Percent Cell Viability (MTT assay) showing. cytotoxicity of the indicated ceramide analogs to human colon carcinoma cells. Human colon carcinoma SW480 cells were cultured in the presence of ceramide analogs at the indicated concentrations for three days. Cell viability was determined by MTT assays. % cell viability of control was set at 100% and cell viability of treatment groups was calculated as % of the control groups. IC50 was calculated using GraphPad Prism program.
Cells were seeded in 96-well plates at 2×10^3 cells/well in 100 μl culture medium for 3 days. Cell viability assays were performed using the MTT cell proliferation assay kit (ATCC, Manassas, Va.) according to the manufacturer's instructions.
The structures and functions of ceramide analogs Cheng, J. C. et al. Radiation-induced acid ceramidase confers prostate cancer resistance and tumor relapse. J Clin Invest 123, 4344-4358, doi:10.1172/JCI6479164791 [pii] (2013); and Paschall, A. V. et al. Ceramide targets xIAP and cIAP1 to sensitize metastatic colon and breast cancer cells to apoptosis induction to suppress tumor progression. BMC Cancer 14, 24, doi:10.1186/1471-2407-14-241471-2407-14-24 [pii] (2014) were analyzed and synthesized twenty ceramide analogs to be developed into Fas sensitizers (Supplemental Table 1). […]

CT26 tumor cells = assay: CTL cytotoxicity assay with perforin-deficient CTLs (pfpCTL); type: cell-based; conditions: analog alone at the dose used
Protocol: FIG. 7A is a line graph of percent tumor cell lysis verus pfpCTLs E/T ratio. Cells were gated for CFSE^+ tumor cells. The gated cells were then analyzed for PI^+ cells. % tumor cell lysis was calculated as % CFSE^+PI^+ cells in the presence of CTLs−% CFSE^+PI^+ cells in the absence of CTLs. FIG. 7B is a bar graph of percent tumor cell lysis Cells were gated for CFSE^+ tumor cells. The gated cells were then analyzed for PI^+ cells. % tumor cell lysis was calculated as % CFSE^+PI^+ cells in the presence of ceramide analogs or ceramide analogs plus pfpCTLs−% CFSE^+PI^+ cells in the absence of ceramide analogs or ceramide analogs plus pfpCTLs. Column: mean; Bar: SD. Bolded ** indicated p<0.01 between ceramide analog+pfpCTLs group and pfpCTLs only group, and green ** indicates p<0.01 between ceramide analog+pfpCTLs group and ceramide analog only group. Column: mean; Bar: SD.
Perforin-deficient CTLs were generated and maintained by weekly stimulation with AH1 peptide as previously described Liu, K., Caldwell, S. A., Greeneltch, K. M., Yang, D. & Abrams, S. I. CTL Adoptive Immunotherapy Concurrently Mediates Tumor Regression and Tumor Escape. J Immunol 176, 3374-3382 (2006). […] Cells were analyzed immediately by flow cytometry. CFSE^+ tumor cells were gated and analyzed for PI^+ cells. […]

SMILES	activity in human colon carcinoma [1]	increase of cell sensitivity to FasL-induced apoptosis [1]	established colon carcinoma lung metastasis (tumor nodules/lung) (CT26 cells)	cytotoxicity (SW480 cells)	cytotoxicity to CT26 tumor cells (CT26 tumor cells)
CCCCCCCCCCCCN(C)C(=O)[C@@H](NC(=O)c1cc2cc(C)ccc2[nH]1)[C@@H](C)O [IG9]	potent activity				
CCCCCCCCCCCCN(C)C(=O)[C@@H](NC(=O)c1cc2cc(F)ccc2[nH]1)[C@@H](C)O [IG14]	potent activity	effectively increase; also recorded: significant efficacy			
CCCCCCCC/C=C\CCCCCCCC(=O)N[C@H](CO)[C@@H](O)c1ccc([N+](=O)[O-])cc1 [IG17, N-((1S,2R)-1,3-dihydroxy-1-(4-nitrophenyl)propan-2-yl)oleamide]	potent activity	effectively increase; also recorded: significant efficacy	suppress		
CCCCCCCCCCCCN(C)C(=O)[C@@H](NC(=O)c1cc2c(F)cccc2[nH]1)[C@@H](C)O [IG19]		effectively increase; also recorded: significant efficacy	suppress		
CCCC/C=C/CCCCCCCC(=O)N[C@H](CO)[C@@H](O)c1ccc([N+](=O)[O-])cc1 [IG20, (E)-N-((1S,2R)-1,3-dihydroxy-1-(4-nitrophenyl)propan-2-yl)tetradec-9-enamide]				no cytotoxicity	
CCCCCCCCCCCCN(C)C(=O)[C@@H](NC(=O)c1cc2cc(Br)ccc2[nH]1)[C@@H](C)O [IG10]				no cytotoxicity	
CCCCCCCCCCCCCNC(=O)[C@@H](NC(=O)c1cc2c(OC)cccc2[nH]1)[C@@H](C)O [IG8]	potent activity	effectively increase; also recorded: significant efficacy			high cytotoxicity
CCCCCCCCCCCCCNC(=O)[C@@H](NC(=O)c1cc2cc(OC)ccc2[nH]1)[C@@H](C)O [IG7]	potent activity	effectively increase; also recorded: significant efficacy	suppress		
CCCCCCCCCCCCCNC(=O)[C@@H](NC(=O)c1cc2c(F)cccc2[nH]1)[C@@H](C)O [IG4]	potent activity	effectively increase; also recorded: significant efficacy	suppress		
